In the supplement of paper PMC10307832:

Tests used:
Assay in all cases: relative viability (nuclei count vs DMSO), 5 days (fraction); higher = more cells survive
[1] = system: ABC-1
Procedure, shortened: (§1)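 Relative viability was taken as the ratio of nuclei in treated wells to nuclei in vehicle wells. Lung cancer cell lines in 1536-well plates received compounds by pin tool one day after seeding, either one drug alone or a fixed anchor-drug dose plus five library-drug doses (not always all listed) in √10 steps. Nuclei were counted on 4× images after 5 days of treatment, and values are medians of duplicate plates.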

[2] = system: CAL-12T
Procedure, shortened: as §1

[3] = system: ChaGo-K-1
Procedure, shortened: as §1

[4] = system: EPLC-272H
Procedure, shortened: as §1

[5] = system: HCC-366
Procedure, shortened: as §1

[6] = system: HCC-78
Procedure, shortened: as §1

[7] = system: LC-2-ad
Procedure, shortened: as §1

[8] = system: LOU-NH91
Procedure, shortened: as §1

[9] = system: LU99A
Procedure, shortened: as §1

[10] = system: NCI-H1395
Procedure, shortened: as §1

[11] = system: NCI-H1651
Procedure, shortened: as §1

[12] = system: NCI-H1734
Procedure, shortened: as §1

[13] = system: NCI-H1755
Procedure, shortened: as §1

[14] = system: NCI-H1793
Procedure, shortened: as §1

[15] = system: NCI-H1944
Procedure, shortened: as §1

[16] = system: NCI-H2087
Procedure, shortened: as §1

[17] = system: NCI-H2170
Procedure, shortened: as §1

[18] = system: NCI-H2228
Procedure, shortened: as §1

[19] = system: NCI-H2405
Procedure, shortened: as §1

[20] = system: NCI-H3122
Procedure, shortened: as §1

[21] = system: NCI-H460
Procedure, shortened: as §1

[22] = system: PC-3 [JPC-3]
Procedure, shortened: as §1

[23] = system: RERF-LC-KJ
Procedure, shortened: as §1

[24] = system: UMC-11
Procedure, shortened: as §1

C[C@@H]1CN(CC(=O)Nc2ccc3c(c2)Cc2cccc(-c4cc(=O)cc(N5CCOCC5)o4)c2S3)C[C@H](C)O1 + Cc1nc(Nc2ncc(C(=O)Nc3c(C)cccc3Cl)s2)cc(N2CCN(CCO)CC2)n1 [Dasatinib] (partner 0.075 µM)
relative viability ([1]; first compound 0.1265 µM): 0.571 | relative viability ([1]; first compound 0.4 µM): 0.447 | relative viability ([1]; first compound 4 µM): 0.504 | relative viability ([2]; first compound 0.04 µM): 0.515 | relative viability ([2]; first compound 0.1265 µM): 0.535 | relative viability ([2]; first compound 0.4 µM): 0.429 | relative viability ([2]; first compound 4 µM): 0.2 | relative viability ([3]; first compound 0.04 µM): 0.603 | relative viability ([3]; first compound 0.1265 µM): 0.617 | relative viability ([3]; first compound 0.4 µM): 0.553 | relative viability ([3]; first compound 4 µM): 0.524 | relative viability ([4]; first compound 0.04 µM): 0.459 | relative viability ([4]; first compound 0.1265 µM): 0.284 | relative viability ([4]; first compound 0.4 µM): 0.319 | relative viability ([4]; first compound 4 µM): 0.341 | relative viability ([5]; first compound 0.04 µM): 0.7 | relative viability ([5]; first compound 0.1265 µM): 0.636 | relative viability ([5]; first compound 0.4 µM): 0.427 | relative viability ([5]; first compound 4 µM): 0.529 | relative viability ([6]; first compound 0.04 µM): 0.366 | relative viability ([6]; first compound 0.1265 µM): 0.363 | relative viability ([6]; first compound 0.4 µM): 0.362 | relative viability ([6]; first compound 4 µM): 0.519 | relative viability ([7]; first compound 0.04 µM): 0.583 | relative viability ([7]; first compound 0.1265 µM): 0.55 | relative viability ([7]; first compound 0.4 µM): 0.487 | relative viability ([7]; first compound 4 µM): 0.492 | relative viability ([8]; first compound 0.04 µM): 0.588 | relative viability ([8]; first compound 0.1265 µM): 0.51 | relative viability ([8]; first compound 0.4 µM): 0.476 | relative viability ([8]; first compound 4 µM): 0.492 | relative viability ([9]; first compound 0.04 µM): 0.523 | relative viability ([9]; first compound 0.1265 µM): 0.491 | relative viability ([9]; first compound 0.4 µM): 0.488 | relative viability ([9]; first compound 4 µM): 0.523 | relative viability ([10]; first compound 0.04 µM): 0.396 | relative viability ([10]; first compound 0.1265 µM): 0.387 | relative viability ([10]; first compound 0.4 µM): 0.366 | relative viability ([10]; first compound 4 µM): 0.368 | relative viability ([11]; first compound 0.04 µM): 0.47 | relative viability ([11]; first compound 0.1265 µM): 0.411 | relative viability ([11]; first compound 0.4 µM): 0.478 | relative viability ([11]; first compound 4 µM): 0.348 | relative viability ([12]; first compound 0.04 µM): 0.475 | relative viability ([12]; first compound 0.1265 µM): 0.489 | relative viability ([12]; first compound 0.4 µM): 0.5 | relative viability ([12]; first compound 4 µM): 0.517 | relative viability ([13]; first compound 0.04 µM): 0.455 | relative viability ([13]; first compound 0.1265 µM): 0.397 | relative viability ([13]; first compound 0.4 µM): 0.427 | relative viability ([13]; first compound 4 µM): 0.37 | relative viability ([14]; first compound 0.04 µM): 0.403 | relative viability ([14]; first compound 0.1265 µM): 0.373 | relative viability ([14]; first compound 0.4 µM): 0.414 | relative viability ([14]; first compound 4 µM): 0.342 | relative viability ([15]; first compound 0.04 µM): 0.21 | relative viability ([15]; first compound 0.1265 µM): 0.236 | relative viability ([15]; first compound 0.4 µM): 0.263 | relative viability ([15]; first compound 4 µM): 0.264 | relative viability ([16]; first compound 0.04 µM): 0.971 | relative viability ([16]; first compound 0.1265 µM): 0.852 | relative viability ([16]; first compound 0.4 µM): 0.894 | relative viability ([16]; first compound 4 µM): 0.743 | relative viability ([17]; first compound 0.04 µM): 0.569 | relative viability ([17]; first compound 0.1265 µM): 0.581 | relative viability ([17]; first compound 0.4 µM): 0.711 | relative viability ([17]; first compound 4 µM): 0.57 | relative viability ([18]; first compound 0.04 µM): 0.595 | relative viability ([18]; first compound 0.1265 µM): 0.498 | relative viability ([18]; first compound 0.4 µM): 0.423 | relative viability ([18]; first compound 4 µM): 0.383 | relative viability ([19]; first compound 0.04 µM): 0.226 | relative viability ([19]; first compound 0.1265 µM): 0.187 | relative viability ([19]; first compound 0.4 µM): 0.229 | relative viability ([19]; first compound 4 µM): 0.169 | relative viability ([20]; first compound 0.04 µM): 0.797 | relative viability ([20]; first compound 0.1265 µM): 0.838 | relative viability ([20]; first compound 0.4 µM): 0.827 | relative viability ([20]; first compound 4 µM): 0.844 | relative viability ([21]; first compound 0.04 µM): 0.606 | relative viability ([21]; first compound 0.1265 µM): 0.484 | relative viability ([21]; first compound 0.4 µM): 0.427 | relative viability ([21]; first compound 4 µM): 0.339 | relative viability ([22]; first compound 0.04 µM): 0.983 | relative viability ([22]; first compound 0.1265 µM): 1.06 | relative viability ([22]; first compound 0.4 µM): 1.01 | relative viability ([22]; first compound 4 µM): 0.918 | relative viability ([23]; first compound 0.04 µM): 0.877 | relative viability ([23]; first compound 0.1265 µM): 0.813 | relative viability ([23]; first compound 0.4 µM): 0.782 | relative viability ([23]; first compound 4 µM): 0.665 | relative viability ([24]; first compound 0.04 µM): 0.475 | relative viability ([24]; first compound 0.1265 µM): 0.478 | relative viability ([24]; first compound 0.4 µM): 0.505 | relative viability ([24]; first compound 4 µM): 0.448

CC(C)Oc1cc(Nc2nc(N[C@@H](C)c3ccc(F)cn3)ncc2Cl)n[nH]1 [AZ23] + CS(=O)(=O)N1CCN(Cc2cc3nc(-c4cccc5[nH]ncc45)nc(N4CCOCC4)c3s2)CC1 [Pictilisib] (partner 1 µM)
relative viability ([1]; first compound 0.01 µM): 0.634 | relative viability ([1]; first compound 0.03162 µM): 0.909 | relative viability ([1]; first compound 0.3162 µM): 0.841 | relative viability ([2]; first compound 0.03162 µM): 0.418 | relative viability ([2]; first compound 0.3162 µM): 0.406 | relative viability ([3]; first compound 0.01 µM): 0.658 | relative viability ([3]; first compound 0.03162 µM): 1.18 | relative viability ([3]; first compound 0.3162 µM): 0.661 | relative viability ([4]; first compound 0.01 µM): 0.258 | relative viability ([4]; first compound 0.03162 µM): 0.349 | relative viability ([5]; first compound 0.01 µM): 0.14 | relative viability ([5]; first compound 0.03162 µM): 0.145 | relative viability ([5]; first compound 0.3162 µM): 0.147 | relative viability ([6]; first compound 0.01 µM): 0.192 | relative viability ([6]; first compound 0.03162 µM): 0.195 | relative viability ([6]; first compound 0.3162 µM): 0.195 | relative viability ([7]; first compound 0.01 µM): 0.386 | relative viability ([7]; first compound 0.03162 µM): 0.574 | relative viability ([7]; first compound 0.3162 µM): 0.357 | relative viability ([8]; first compound 0.01 µM): 0.483 | relative viability ([8]; first compound 0.03162 µM): 0.525 | relative viability ([8]; first compound 0.3162 µM): 0.528 | relative viability ([9]; first compound 0.01 µM): 0.292 | relative viability ([9]; first compound 0.03162 µM): 0.386 | relative viability ([9]; first compound 0.3162 µM): 0.294 | relative viability ([10]; first compound 0.03162 µM): 0.666 | relative viability ([10]; first compound 0.3162 µM): 0.577 | relative viability ([11]; first compound 0.01 µM): 0.443 | relative viability ([11]; first compound 0.03162 µM): 0.542 | relative viability ([11]; first compound 0.3162 µM): 0.665 | relative viability ([12]; first compound 0.01 µM): 0.429 | relative viability ([12]; first compound 0.03162 µM): 0.543 | relative viability ([12]; first compound 0.3162 µM): 0.487 | relative viability ([13]; first compound 0.01 µM): 0.41 | relative viability ([13]; first compound 0.03162 µM): 0.478 | relative viability ([13]; first compound 0.3162 µM): 0.464 | relative viability ([14]; first compound 0.01 µM): 0.318 | relative viability ([14]; first compound 0.03162 µM): 0.369 | relative viability ([14]; first compound 0.3162 µM): 0.371 | relative viability ([15]; first compound 0.01 µM): 0.342 | relative viability ([15]; first compound 0.03162 µM): 0.353 | relative viability ([15]; first compound 0.3162 µM): 0.319 | relative viability ([16]; first compound 0.01 µM): 0.867 | relative viability ([16]; first compound 0.03162 µM): 1.06 | relative viability ([16]; first compound 0.3162 µM): 0.964 | relative viability ([17]; first compound 0.01 µM): 0.288 | relative viability ([17]; first compound 0.03162 µM): 0.325 | relative viability ([17]; first compound 0.3162 µM): 0.304 | relative viability ([18]; first compound 0.01 µM): 0.523 | relative viability ([18]; first compound 0.03162 µM): 0.346 | relative viability ([18]; first compound 0.3162 µM): 0.394 | relative viability ([19]; first compound 0.01 µM): 0.412 | relative viability ([19]; first compound 0.03162 µM): 0.575 | relative viability ([19]; first compound 0.3162 µM): 0.429 | relative viability ([20]; first compound 0.01 µM): 0.658 | relative viability ([20]; first compound 0.03162 µM): 0.598 | relative viability ([20]; first compound 0.3162 µM): 0.579 | relative viability ([21]; first compound 0.01 µM): 0.3 | relative viability ([21]; first compound 0.03162 µM): 0.567 | relative viability ([21]; first compound 0.3162 µM): 0.348 | relative viability ([22]; first compound 0.01 µM): 0.807 | relative viability ([22]; first compound 0.03162 µM): 0.833 | relative viability ([22]; first compound 0.3162 µM): 0.807 | relative viability ([23]; first compound 0.01 µM): 0.546 | relative viability ([23]; first compound 0.03162 µM): 0.507 | relative viability ([23]; first compound 0.3162 µM): 0.502 | relative viability ([24]; first compound 0.01 µM): 0.762 | relative viability ([24]; first compound 0.03162 µM): 0.963 | relative viability ([24]; first compound 0.3162 µM): 0.818
